Target: T1, CD80-CD28 interaction (Homo sapiens, UniProt P33681)
T1 construct: mouse Fab fragment (fusion partner)
T1 sequence (P33681 35-242 limits assumed): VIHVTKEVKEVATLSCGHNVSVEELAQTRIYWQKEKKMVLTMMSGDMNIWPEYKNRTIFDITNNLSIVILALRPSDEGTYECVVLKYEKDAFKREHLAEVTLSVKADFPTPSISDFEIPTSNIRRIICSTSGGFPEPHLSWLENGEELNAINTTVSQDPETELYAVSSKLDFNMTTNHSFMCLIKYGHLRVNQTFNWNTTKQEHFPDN
Experiment: cell free Homogenous Time Resolved Fluorescence (HTRF) assay, inhibition of the CD80-CD28 interaction
Type: binding
Settings: 4 hours at room temperature, read-out: Activity (EC50 in summary form)
Description: The examples described above were tested in a cell free Homogenous Time Resolved Fluorescence (HTRF) assay to determine their activity as inhibitors of the CD80-CD28 interaction.
In the assay, europium and allophycocyanin (APC) are associated with CD28 and CD80 indirectly (through antibody linkers) to form a complex, which brings the europium and APC into close proximity to generate a signal. The complex comprises the following six proteins: fluorescent label 1, linker antibody 1, CD28 fusion protein, CD80 fusion protein, linker antibody 2, and fluorescent label 2. The table below describes these reagents in greater detail.
On formation of the complex, europium and APC are brought into proximity and a signal is generated.
Non-specific interaction was measured by substituting a mouse Fab fragment (C215) for the CD80 mouse Fab fragment fusion protein (1.9 μg/ml). The assay was carried out in black 384 well plates in a final volume of 30 μl. Assay buffer: 50 mM Tris-HCl, 150 mM NaCl pH7.8, containing 0.1% BSA (w/v) added just prior to use.
Compounds were added to the above reagents in a concentration series ranging between 100 μM-1.7 nM. The reaction was incubated for 4 hours at room temperature. Dual measurements were made using a Wallac Victor 1420 Multilabel Counter. First measurement: excitation 340 nm, emission 665 nm, delay 50 μs, window time 200 μs. second measurement: excitation 340 nm, emission 615 nm, delay 50 μs, window time 200 μs. Counts were automatically corrected for fluorescence crossover, quenching and background.

EC50 [µM]	Compound
< 1	CCC(C)C(=O)Nc1ccc(-n2nc3c4cccc(F)c4[nH]cc-3c2=O)cc1 (centres unmarked) [Example 1, N-[4-(6-Fluoro-3-oxo-3,5-dihydropyrazolo[4,3-c]quinolin-2-yl)-phenyl]-2-methyl-butyramide]
< 1	CCCC(C)C(=O)Nc1ccc(-n2nc3c4cccc(F)c4[nH]cc-3c2=O)cc1 (centres unmarked) [Example 2, 2-Methyl-pentanoic acid [4-(6-fluoro-3-oxo-3,5-dihydro-pyrazolo[4,3-c]quinolin-2-yl)-phenyl]-amide]
> 10	Cn1cccc1C(=O)Nc1ccc(-n2nc3c4cccc(F)c4[nH]cc-3c2=O)cc1 [Example 3, 1-Methyl-1H-pyrrole-2-carboxylic acid [4-(6-fluoro-3-oxo-3,5-dihydro-pyrazolo[4,3-c]quinolin-2-yl)-phenyl]-amide]
1 to 10	CC(C)CC(=O)Nc1ccc(-n2nc3c4cccc(F)c4[nH]cc-3c2=O)cc1 [Example 4, N-[4-(6-Fluoro-3-oxo-3,5-dihydro-pyrazolo[4,3-c]quinolin-2-yl)-phenyl]-3-methyl-butyramide]
> 10	CCCC(CCC)C(=O)Nc1ccc(-n2nc3c4cccc(F)c4[nH]cc-3c2=O)cc1 [Example 5, 2-Propyl-pentanoic acid [4-(6-fluoro-3-oxo-3,5-dihydro-pyrazolo[4,3-c]quinolin-2-yl)-phenyl]-amide]
< 1	COC(=O)CCCCC(=O)Nc1ccc(-n2nc3c4cccc(F)c4[nH]cc-3c2=O)cc1 [Example 6, 5-[4-(6-Fluoro-3-oxo-3,5-dihydro-pyrazolo[4,3-c]quinolin-2-yl)phenylcarbamoyl]-pentanoic acid methyl ester]
1 to 10	CC(C)(C)C(=O)Nc1ccc(-n2nc3c4cccc(F)c4[nH]cc-3c2=O)cc1 [Example 7, N-[4-(6-Fluoro-3-oxo-3,5-dihydro-pyrazolo[4,3-c]quinolin-2-yl)-phenyl]-2,2-dimethyl-propionamide]
1 to 10	O=C(COCc1ccccc1)Nc1ccc(-n2nc3c4cccc(F)c4[nH]cc-3c2=O)cc1 [Example 8]
1 to 10	O=C(CCl)Nc1ccc(-n2nc3c4cccc(F)c4[nH]cc-3c2=O)cc1 [Example 9]
> 10	O=C(Nc1ccc(-n2nc3c4cccc(F)c4[nH]cc-3c2=O)cc1)c1ccco1 [Example 10]
> 10	O=C(Nc1ccc(-n2nc3c4cccc(F)c4[nH]cc-3c2=O)cc1)c1ccc(N2CCOCC2)nc1 [Example 11]
1 to 10	COC(=O)C(=O)Nc1ccc(-n2nc3c4cccc(F)c4[nH]cc-3c2=O)cc1 [Example 12]
> 10	CCCc1c(C(=O)Nc2ccc(-n3nc4c5cccc(F)c5[nH]cc-4c3=O)cc2)cnn1-c1ccccc1 [Example 14]
1 to 10	O=C(Nc1ccc(-n2nc3c4cccc(F)c4[nH]cc-3c2=O)cc1)c1ncoc1-c1ccccc1 [Example 15]
1 to 10	CC(=O)Nc1ccc(-n2nc3c4cccc(F)c4[nH]cc-3c2=O)cc1 [Example 16]
> 10	CCCCC(CC)C(=O)Nc1ccc(-n2nc3c4cccc(F)c4[nH]cc-3c2=O)cc1 (centres unmarked) [Example 17]
< 1	CCC(CC)C(=O)Nc1ccc(-n2nc3c4cccc(F)c4[nH]cc-3c2=O)cc1 [Example 18]
1 to 10	O=C(CC1CCCC1)Nc1ccc(-n2nc3c4cccc(F)c4[nH]cc-3c2=O)cc1 [Example 19]
1 to 10	CC(=O)N1CCC(C(=O)Nc2ccc(-n3nc4c5cccc(F)c5[nH]cc-4c3=O)cc2)CC1 [Example 20]
1 to 10	O=C(Cc1c(Cl)cccc1Cl)Nc1ccc(-n2nc3c4cccc(F)c4[nH]cc-3c2=O)cc1 [Example 21]

EC50 [µM]	Compound
< 1	CC(=O)OC(C)(C)C(=O)Nc1ccc(-n2nc3c4cccc(F)c4[nH]cc-3c2=O)cc1 [Example 22]
1 to 10	COC(=O)CCCCCCCCC(=O)Nc1ccc(-n2nc3c4cccc(F)c4[nH]cc-3c2=O)cc1 [Example 23]
< 1	CC(C)C(=O)Nc1ccc(-n2nc3c4cccc(F)c4[nH]cc-3c2=O)cc1 [Example 24]
1 to 10	COCCOCC(=O)Nc1ccc(-n2nc3c4cccc(F)c4[nH]cc-3c2=O)cc1 [Example 25]
1 to 10	COCC(=O)Nc1ccc(-n2nc3c4cccc(F)c4[nH]cc-3c2=O)cc1 [Example 27]
1 to 10	O=C(Nc1ccc(-n2nc3c4cccc(F)c4[nH]cc-3c2=O)cc1)c1ccno1 [Example 28]
< 1	C[N+](C)(C)CCCC(=O)Nc1ccc(-n2nc3c4cccc(F)c4[nH]cc-3c2=O)cc1 [Example 29]
< 1	CN(C)CCCC(=O)Nc1ccc(-n2nc3c4cccc(F)c4[nH]cc-3c2=O)cc1 [Example 30]
> 10	CN(CCCNCC(=O)Nc1ccc(-n2nc3c4cccc(F)c4[nH]cc-3c2=O)cc1)c1ccccc1 [Example 31]
> 10	CN(C)c1ccc(CNCC(=O)Nc2ccc(-n3nc4c5cccc(F)c5[nH]cc-4c3=O)cc2)cc1 [Example 32]
< 1	CN1C(C)(C)CC(NCC(=O)Nc2ccc(-n3nc4c5cccc(F)c5[nH]cc-4c3=O)cc2)CC1(C)C [Example 33]
< 1	O=C(CN1CCN(C2CCCCCC2)CC1)Nc1ccc(-n2nc3c4cccc(F)c4[nH]cc-3c2=O)cc1 [Example 34]
< 1	O=C(CNCCCN1CCCC1=O)Nc1ccc(-n2nc3c4cccc(F)c4[nH]cc-3c2=O)cc1 [Example 35]
1 to 10	O=C(CNCCc1ccccn1)Nc1ccc(-n2nc3c4cccc(F)c4[nH]cc-3c2=O)cc1 [Example 36]
1 to 10	O=C(CNC1CCCCNC1=O)Nc1ccc(-n2nc3c4cccc(F)c4[nH]cc-3c2=O)cc1 (centres unmarked) [Example 37]
1 to 10	COC(=O)CC[C@H](N)C(=O)Nc1ccc(-n2nc3c4cccc(F)c4[nH]cc-3c2=O)cc1 [Example 38]
< 1	CN1CCCC1CCNCC(=O)Nc1ccc(-n2nc3c4cccc(F)c4[nH]cc-3c2=O)cc1 (centres unmarked) [Example 39]
1 to 10	O=C(CNCCCn1ccnc1)Nc1ccc(-n2nc3c4cccc(F)c4[nH]cc-3c2=O)cc1 [Example 40]
1 to 10	CC(C)N(CCNCC(=O)Nc1ccc(-n2nc3c4cccc(F)c4[nH]cc-3c2=O)cc1)C(C)C [Example 41]
1 to 10	O=C(CN1CCCCC1)Nc1ccc(-n2nc3c4cccc(F)c4[nH]cc-3c2=O)cc1 [Example 42]

EC50 [µM]	Compound
1 to 10	CC(N)C(=O)Nc1ccc(-n2nc3c4ccccc4[nH]cc-3c2=O)cc1 (centres unmarked) [Example 43]
> 10	CCCC(C)C(=O)Nc1ccc(-n2nc3c4ccccc4[nH]cc-3c2=O)cc1 (centres unmarked) [Example 44]
1 to 10	CC(C)C(=O)Nc1ccc(-n2nc3c4ccccc4[nH]cc-3c2=O)cc1 [Example 45]
< 1	CC(N)C(=O)Nc1ccc(-n2nc3c4cccc(F)c4[nH]cc-3c2=O)cc1 (centres unmarked) [Example 46]
1 to 10	CCC(C)C(=O)Nc1ccc(-n2nc3c4ccccc4[nH]cc-3c2=O)cc1 (centres unmarked) [Example 47]
1 to 10	O=C(CN1CCN(Cc2ccc(F)cc2)CC1)Nc1ccc(-n2nc3c4cccc(F)c4[nH]cc-3c2=O)cc1 [Example 48]
1 to 10	CN(CC(=O)Nc1ccc(-n2nc3c4cccc(F)c4[nH]cc-3c2=O)cc1)Cc1ccccc1 [Example 49]
1 to 10	COCCCNC(=O)c1cccc(-n2nc3c4cccc(F)c4[nH]cc-3c2=O)c1 [Example 50, 3-(6-Fluoro-3-oxo-3,5-dihydro-pyrazolo[4,3-c]quinolin-2-yl)-N-(3-methoxy-propyl)-benzamide]
1 to 10	CCNC(=O)c1cccc(-n2nc3c4cccc(F)c4[nH]cc-3c2=O)c1 [Example 51, N-Ethyl-3-(6-fluoro-3-oxo-3,5-dihydro-pyrazolo[4,3-c]-quinolin-2-yl)-benzamide]
> 10	O=C(NCc1ccccc1)c1cccc(-n2nc3c4cccc(F)c4[nH]cc-3c2=O)c1 [Example 52, N-Benzyl-3-(6-fluoro-3-oxo-3,5-dihydro-pyrazolo[4,3-c]-quinolin-2-yl)-benzamide]
> 10	CN(C)CCCN(C)C(=O)c1cccc(-n2nc3c4cccc(F)c4[nH]cc-3c2=O)c1 [Example 53]
1 to 10	CN(C)CCCNC(=O)c1cccc(-n2nc3c4cccc(F)c4[nH]cc-3c2=O)c1 [Example 54]
> 10	N[C@H]1CC[C@H](NC(=O)c2cccc(-n3nc4c5cccc(F)c5[nH]cc-4c3=O)c2)CC1 [Example 55]
> 10	O=C(NCCCN1CCCC1)c1cccc(-n2nc3c4cccc(F)c4[nH]cc-3c2=O)c1 [Example 56]
1 to 10	O=C(NCCCCN1CCCC1)c1cccc(-n2nc3c4cccc(F)c4[nH]cc-3c2=O)c1 [Example 57]
1 to 10	CN(C)CCCCNC(=O)c1cccc(-n2nc3c4cccc(F)c4[nH]cc-3c2=O)c1 [Example 58]
1 to 10	COCCNC(=O)c1cccc(-n2nc3c4cccc(F)c4[nH]cc-3c2=O)c1 [Example 59]
> 10	CCN(CC)C(=O)c1cccc(-n2nc3c4cccc(F)c4[nH]cc-3c2=O)c1 [Example 60]

Same assay, conditions: read-out: EC50

EC50 [µM]	Compound
8	O=C(Nc1ccc(-n2nc3c4cccc(F)c4[nH]cc-3c2=O)cc1)c1ncoc1-c1ccccc1 [Example 15]
1.9	O=C(Cc1c(Cl)cccc1Cl)Nc1ccc(-n2nc3c4cccc(F)c4[nH]cc-3c2=O)cc1 [Example 21]
0.95	C[N+](C)(C)CCCC(=O)Nc1ccc(-n2nc3c4cccc(F)c4[nH]cc-3c2=O)cc1 [Example 29]
0.148	O=C(CNCCCN1CCCC1=O)Nc1ccc(-n2nc3c4cccc(F)c4[nH]cc-3c2=O)cc1 [Example 35]
